The results in this text go back to patent US11939331B2, “Tricyclic heterocycles as FGFR inhibitors” (Incyte Corporation, priority 2021, dated 2024).

This assay deals with wild-type un-phosphorylated FGFR3 protein (Homo sapiens, UniProt P22607). The experiment in a line: FGFR Enzymatic Assay (FRET peptide phosphorylation).
Sequence of wild-type un-phosphorylated FGFR3 protein (P22607 23-806): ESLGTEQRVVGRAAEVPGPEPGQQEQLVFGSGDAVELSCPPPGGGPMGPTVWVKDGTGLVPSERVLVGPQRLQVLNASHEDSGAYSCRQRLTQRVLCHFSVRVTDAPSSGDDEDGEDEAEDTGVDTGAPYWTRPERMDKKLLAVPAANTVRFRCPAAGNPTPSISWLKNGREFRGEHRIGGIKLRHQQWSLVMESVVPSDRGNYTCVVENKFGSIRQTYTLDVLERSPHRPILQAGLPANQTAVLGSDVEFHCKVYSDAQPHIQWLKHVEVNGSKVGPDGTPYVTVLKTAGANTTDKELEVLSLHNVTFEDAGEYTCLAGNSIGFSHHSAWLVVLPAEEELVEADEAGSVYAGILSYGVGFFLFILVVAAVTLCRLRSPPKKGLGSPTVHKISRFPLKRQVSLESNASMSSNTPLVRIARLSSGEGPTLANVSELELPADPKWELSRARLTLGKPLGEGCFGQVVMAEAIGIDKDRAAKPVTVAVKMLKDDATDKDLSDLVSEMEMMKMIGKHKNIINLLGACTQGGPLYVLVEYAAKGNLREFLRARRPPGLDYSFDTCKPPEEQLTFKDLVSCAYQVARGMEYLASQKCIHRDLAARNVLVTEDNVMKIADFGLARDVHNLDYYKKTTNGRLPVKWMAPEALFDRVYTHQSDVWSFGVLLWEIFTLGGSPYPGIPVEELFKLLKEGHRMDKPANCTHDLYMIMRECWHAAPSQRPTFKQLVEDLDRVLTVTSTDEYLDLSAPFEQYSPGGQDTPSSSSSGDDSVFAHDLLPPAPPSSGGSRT

Protocol: The inhibitor potency of the exemplified compounds was determined in an enzyme discontinuous assay that measures peptide phosphorylation using FRET measurements to detect product formation. Inhibitors were serially diluted in DMSO and a volume of 0.2 μL was transferred to the wells of a 384-well plate. A 5 μL/well volume of enzyme isoforms of FGFR (-1, -2, -3 wild-type and mutant isoforms, -4) including phosphorylated and un-phosphorylated proteins diluted in assay buffer (50 mM HEPES, 10 mM MgCl2, 1 mM EGTA, 0.01% Tween-20, 5 mM DTT, pH 7.5) was added to the plate and pre-incubated with inhibitor for 5 to 15 minutes at ambient temperature. Appropriate controls (enzyme blank and enzyme with no inhibitor) were included on the plate. The reaction was initiated by the addition of a 5 μL/well volume containing both biotinylated [sequence] peptide substrate (SEQ ID NO: 1) and ATP in assay buffer. The 10 μL/well reaction concentration of the peptide substrate was 500 nM whereas the ATP concentration was maintained near or below the ATP Km. The ATP Km values were pre-determined in a separate series of experiments. The reaction plate was incubated at 25° C. for 1 hr and the reactions were ended with the addition of 5 μL/well of quench solution (50 mM Tris, 150 mM NaCl, 0.5 mg/mL BSA, pH 7.8; 45 mM EDTA, 600 nM staurosporin, with Perkin Elmer Lance Reagents at 3.75 nM Eu-antibody PY20 and 180 nM APC-Streptavidin). The plate was allowed to equilibrate for ˜10 minutes at ambient temperature before scanning on a PheraStar plate reader (BMG Labtech) instrument.
Either GraphPad prism or XLfit was used to analyze the data. The IC50 values were derived by fitting the data to a four parameter logistic equation producing a sigmoidal dose-response curve with a variable Hill coefficient. Prism equation: Y=Bottom+(Top−Bottom)/(1+10^((Log IC50−X)*Hill slope)); XLfit equation: Y=(A+((B−A)/(1+((X/C)^D)))) where X is the logarithm of inhibitor concentration and Y is the response.

With `NC(=O)c1c(-c2c(Cl)cccc2Cl)nc2c3cc(-c4cnn(C5CC5)c4)cnc3ccn12` [Example 32, 9-(1-Cyclopropyl-1H-pyrazol-4-yl)-2-(2,6-dichlorophenyl)imidazo[2,1-f][1,6]naphthyridine-3-carboxamide], the IC50 was below 0.1 nM. The value for `NC(=O)c1c(-c2c(Cl)cccc2Cl)nc2c3cc(-c4cnn(CC(F)(F)F)c4)cnc3ccn12` [Example 33, 2-(2,6-Dichlorophenyl)-9-(1-(2,2,2-trifluoroethyl)-1H-pyrazol-4-yl)imidazo[2,1-f][1,6]naphthyridine-3-carboxamide] was below 0.1 nM. To `CN(C)CCn1cc(-c2cnc3ccn4c(C(N)=O)c(-c5c(Cl)cccc5Cl)nc4c3c2)cn1` [Example 34, 2-(2,6-Dichlorophenyl)-9-(1-(2-(dimethylamino)ethyl)-1H-pyrazol-4-yl)imidazo[2,1-f][1,6]naphthyridine-3-carboxamide] belongs below 0.1 nM. The value for `COCC(C)(C)n1cc(-c2cnc3ccn4c(C(N)=O)c(-c5c(Cl)cccc5Cl)nc4c3c2)cn1` [Example 35, 2-(2,6-Dichlorophenyl)-9-(1-(1-methoxy-2-methylpropan-2-yl)-1H-pyrazol-4-yl)imidazo[2,1-f][1,6]naphthyridine-3-carboxamide] was below 0.1 nM; that for `CC(O)Cn1cc(-c2cnc3ccn4c(C(N)=O)c(-c5c(Cl)cccc5Cl)nc4c3c2)cn1` (stereo not drawn) [Example 36, 2-(2,6-Dichlorophenyl)-9-(1-(2-hydroxypropyl)-1H-pyrazol-4-yl)imidazo[2,1-f][1,6]naphthyridine-3-carboxamide] was below 0.1 nM. Take `CN(C)CCCn1cc(-c2cnc3ccn4c(C(N)=O)c(-c5c(Cl)cccc5Cl)nc4c3c2)cn1` [Example 37, 2-(2,6-Dichlorophenyl)-9-(1-(3-(dimethylamino)propyl)-1H-pyrazol-4-yl)imidazo[2,1-f][1,6]naphthyridine-3-carboxamide]: the half-maximal inhibitory concentration (IC50) was below 0.1 nM. To `NC(=O)c1c(-c2c(Cl)cccc2Cl)nc2c3cc(-c4ccc(=O)[nH]c4)cnc3ccn12` [Example 39, 2-(2,6-Dichlorophenyl)-9-(6-oxo-1,6-dihydropyridin-3-yl)imidazo[2,1-f][1,6]naphthyridine-3-carboxamide] belongs 0.1 to 1 nM; to `CC(C)c1[nH]ncc1-c1cnc2ccn3c(C(N)=O)c(-c4c(Cl)cccc4Cl)nc3c2c1` [Example 40, 2-(2,6-Dichlorophenyl)-9-(5-isopropyl-1H-pyrazol-4-yl)imidazo[2,1-f][1,6]naphthyridine-3-carboxamide], 1 to 10 nM. The value for `NC(=O)c1c(-c2c(Cl)cccc2Cl)nc2c3cc(-c4cnn5c4CCC5)cnc3ccn12` [Example 41, 2-(2,6-Dichlorophenyl)-9-(5,6-dihydro-4H-pyrrolo[1,2-b]pyrazol-3-yl)imidazo[2,1-f][1,6]naphthyridine-3-carboxamide] was 0.1 to 1 nM. The value for `CC(C)(O)c1cncc(-c2cnc3ccn4c(C(N)=O)c(-c5c(Cl)cccc5Cl)nc4c3c2)c1` [Example 42, 2-(2,6-Dichlorophenyl)-9-(5-(2-hydroxypropan-2-yl)pyridin-3-yl)imidazo[2,1-f][1,6]naphthyridine-3-carboxamide] was 1 to 10 nM.

Compound `CNc1ncc(-c2cnc3ccn4c(C(N)=O)c(-c5c(Cl)cccc5Cl)nc4c3c2)cn1` [Example 43, 2-(2,6-Dichlorophenyl)-9-(2-(methylamino)pyrimidin-5-yl)imidazo[2,1-f][1,6]naphthyridine-3-carboxamide] returned an IC50 of 0.1 to 1 nM. To `NC(=O)c1c(-c2c(Cl)cccc2Cl)nc2c3cc(-c4cnn(C5CCOC5)c4)cnc3ccn12` (stereo not drawn) [Example 44, 2-(2,6-Dichlorophenyl)-9-(1-(tetrahydrofuran-3-yl)-1H-pyrazol-4-yl)imidazo[2,1-f][1,6]naphthyridine-3-carboxamide] belongs below 0.1 nM; to `NC(=O)c1c(-c2c(Cl)cccc2Cl)nc2c3cc(-c4cnn(CCN5CCOCC5)c4)cnc3ccn12` [Example 45, 2-(2,6-Dichlorophenyl)-9-(1-(2-morpholinoethyl)-1H-pyrazol-4-yl)imidazo[2,1-f][1,6]naphthyridine-3-carboxamide], 0.1 to 1 nM.

On to `CN1CCN(CCn2cc(-c3cnc4ccn5c(C(N)=O)c(-c6c(Cl)cccc6Cl)nc5c4c3)cn2)CC1` [Example 46, 2-(2,6-Dichlorophenyl)-9-(1-(2-(4-methylpiperazin-1-yl)ethyl)-1H-pyrazol-4-yl)imidazo[2,1-f][1,6]naphthyridine-3-carboxamide], for which the half-maximal inhibitory concentration (IC50) was 0.1 to 1 nM. The value for `NC(=O)c1c(-c2c(Cl)cccc2Cl)nc2c3cc(-c4cnn(CCCO)c4)cnc3ccn12` [Example 47, 2-(2,6-Dichlorophenyl)-9-(1-(3-hydroxypropyl)-1H-pyrazol-4-yl)imidazo[2,1-f][1,6]naphthyridine-3-carboxamide] was below 0.1 nM; that for `N#CCCn1cc(-c2cnc3ccn4c(C(N)=O)c(-c5c(Cl)cccc5Cl)nc4c3c2)cn1` [Example 48, 9-(1-(2-Cyanoethyl)-1H-pyrazol-4-yl)-2-(2,6-dichlorophenyl)imidazo[2,1-f][1,6]naphthyridine-3-carboxamide] was below 0.1 nM. With `NC(=O)Cn1cc(-c2cnc3ccn4c(C(N)=O)c(-c5c(Cl)cccc5Cl)nc4c3c2)cn1` [Example 49, 9-(1-(2-Amino-2-oxoethyl)-1H-pyrazol-4-yl)-2-(2,6-dichlorophenyl)imidazo[2,1-f][1,6]naphthyridine-3-carboxamide], the IC50 was below 0.1 nM. The value for `CC(C)(O)c1ccc(-c2cnc3ccn4c(C(N)=O)c(-c5c(Cl)cccc5Cl)nc4c3c2)cn1` [Example 50, 2-(2,6-Dichlorophenyl)-9-(6-(2-hydroxypropan-2-yl)pyridin-3-yl)imidazo[2,1-f][1,6]naphthyridine-3-carboxamide] was 0.1 to 1 nM. The value for `NC(=O)c1c(-c2c(Cl)cccc2Cl)nc2c3cc(-c4ccc(CC(F)(F)F)nc4)cnc3ccn12` [Example 51, 2-(2,6-Dichlorophenyl)-9-(6-(2,2,2-trifluoroethyl)pyridin-3-yl)imidazo[2,1-f][1,6]naphthyridine-3-carboxamide] was 0.1 to 1 nM. The value for `CNC(=O)c1ccc(-c2cnc3ccn4c(C(N)=O)c(-c5c(Cl)cccc5Cl)nc4c3c2)cn1` [Example 52, 2-(2,6-Dichlorophenyl)-9-(6-(methylcarbamoyl)pyridin-3-yl)imidazo[2,1-f][1,6]naphthyridine-3-carboxamide] was 0.1 to 1 nM; that for `NC(=O)c1c(-c2c(Cl)cccc2Cl)nc2c3cc(C4=CCC(O)CC4)cnc3ccn12` (stereo not drawn) [Example 53, 2-(2,6-Dichlorophenyl)-9-(4-hydroxycyclohex-1-en-1-yl)imidazo[2,1-f][1,6]naphthyridine-3-carboxamide] was below 0.1 nM. Turning to `CC(C)(O)c1cnc2ccn3c(C(N)=O)c(-c4c(Cl)cccc4Cl)nc3c2c1` [Example 55, 2-(2,6-Dichlorophenyl)-9-(2-hydroxypropan-2-yl)imidazo[2,1-f][1,6]naphthyridine-3-carboxamide], the IC50 was in the range of 10 to 50 nM. To `Cc1nc2c3cc(-c4cnn(C5CCOCC5)c4)cnc3ccn2c1C(N)=O` [Example 57, 2-Methyl-9-(1-(tetrahydro-2H-pyran-4-yl)-1H-pyrazol-4-yl)imidazo[2,1-f][1,6]naphthyridine-3-carboxamide] belongs 10 to 50 nM; to `NC(=O)c1cnc2c3cc(-c4cnn(C5CCOCC5)c4)cnc3ccn12` [Example 58, 9-(1-(Tetrahydro-2H-pyran-4-yl)-1H-pyrazol-4-yl)imidazo[2,1-f][1,6]naphthyridine-3-carboxamide], 10 to 50 nM.

As usually defined, the IC50 is the concentration at which inhibition is half-maximal. Read a high IC50 as weaker potency.
